Molecular target: T1, ΔF508-CFTR (Homo sapiens, UniProt P13569, DEL508-508)
T1 construct: expressed in transfected cells
Experiment: Membrane potential optical assay for ΔF508-CFTR correction (FRET voltage-sensor dyes, VIPR)
Assay type: cell-based
Settings: PercentActivity; NIH3T3 mouse fibroblasts stably expressing ΔF508-CFTR; procedures described above
Description: Assays for Detecting and Measuring ΔF508-CFTR Correction Properties of Compounds
Membrane potential optical methods for assaying ΔF508-CFTR modulation properties of compounds
The optical membrane potential assay utilized voltage-sensitive FRET sensors described by Gonzalez and Tsien (See, Gonzalez, J. E. and R. Y. Tsien (1995) “Voltage sensing by fluorescence resonance energy transfer in single cells” Biophys J 69(4): 1272-80, and Gonzalez, J. E. and R. Y. Tsien (1997) “Improved indicators of cell membrane potential that use fluorescence resonance energy transfer” Chem Biol 4(4): 269-77) in combination with instrumentation for measuring fluorescence changes such as the Voltage/Ion Probe Reader (VIPR) (See, Gonzalez, J. E., K. Oades, et al. (1999) “Cell-based assays and instrumentation for screening ion-channel targets” Drug Discov Today 4(9): 431-439).
These voltage sensitive assays are based on the change in fluorescence resonant energy transfer (FRET) between the membrane-soluble, voltage-sensitive dye, DiSBAC2(3), and a fluorescent phospholipid, CC2-DMPE, which is attached to the outer leaflet of the plasma membrane and acts as a FRET donor. […] The changes in fluorescence emission were monitored using VIPR™ II, which is an integrated liquid handler and fluorescent detector designed to conduct cell-based screens in 96- or 384-well microtiter plates. […]

T1 sequence (P13569 with tags, fused parts or gaps DEL508-508): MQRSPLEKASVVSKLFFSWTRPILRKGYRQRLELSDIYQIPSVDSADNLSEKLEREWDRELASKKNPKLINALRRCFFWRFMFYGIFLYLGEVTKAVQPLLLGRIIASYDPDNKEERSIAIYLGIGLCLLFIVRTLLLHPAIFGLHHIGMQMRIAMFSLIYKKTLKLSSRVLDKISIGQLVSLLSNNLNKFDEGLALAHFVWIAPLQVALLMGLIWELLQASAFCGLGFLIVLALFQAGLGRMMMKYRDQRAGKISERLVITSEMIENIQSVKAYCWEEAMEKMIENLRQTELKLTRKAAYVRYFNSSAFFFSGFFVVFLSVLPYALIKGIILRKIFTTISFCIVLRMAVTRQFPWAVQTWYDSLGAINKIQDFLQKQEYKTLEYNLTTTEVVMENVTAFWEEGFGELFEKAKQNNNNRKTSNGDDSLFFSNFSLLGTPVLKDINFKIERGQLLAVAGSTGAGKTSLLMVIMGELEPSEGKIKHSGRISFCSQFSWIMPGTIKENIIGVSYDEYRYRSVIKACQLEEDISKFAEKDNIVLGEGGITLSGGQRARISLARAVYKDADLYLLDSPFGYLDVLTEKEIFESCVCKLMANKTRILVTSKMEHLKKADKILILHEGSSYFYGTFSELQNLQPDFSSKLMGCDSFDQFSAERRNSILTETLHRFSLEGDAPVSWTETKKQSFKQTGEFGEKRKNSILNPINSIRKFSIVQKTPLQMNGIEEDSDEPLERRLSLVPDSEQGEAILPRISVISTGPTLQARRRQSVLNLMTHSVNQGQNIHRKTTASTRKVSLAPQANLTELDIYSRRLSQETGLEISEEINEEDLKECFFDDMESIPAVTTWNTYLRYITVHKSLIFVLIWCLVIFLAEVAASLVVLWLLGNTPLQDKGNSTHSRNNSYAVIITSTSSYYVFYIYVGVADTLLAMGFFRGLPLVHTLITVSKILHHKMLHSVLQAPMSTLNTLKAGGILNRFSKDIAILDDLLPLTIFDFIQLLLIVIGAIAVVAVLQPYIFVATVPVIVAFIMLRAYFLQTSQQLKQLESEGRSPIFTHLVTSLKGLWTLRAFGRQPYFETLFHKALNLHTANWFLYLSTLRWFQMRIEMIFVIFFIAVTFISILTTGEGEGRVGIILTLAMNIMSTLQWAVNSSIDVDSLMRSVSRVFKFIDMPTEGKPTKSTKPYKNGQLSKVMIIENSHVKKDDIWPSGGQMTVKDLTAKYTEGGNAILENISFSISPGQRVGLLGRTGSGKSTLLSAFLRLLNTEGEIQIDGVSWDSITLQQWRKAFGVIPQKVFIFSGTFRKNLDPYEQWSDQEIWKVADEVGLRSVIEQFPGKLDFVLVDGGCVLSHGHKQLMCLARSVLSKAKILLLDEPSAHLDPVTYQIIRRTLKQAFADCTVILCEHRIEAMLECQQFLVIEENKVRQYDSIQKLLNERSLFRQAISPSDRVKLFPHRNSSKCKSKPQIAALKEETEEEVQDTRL

CC(C)(CO)c1cc2cc(NC(=O)C3(c4ccc5c(c4)OC(F)(F)O5)CC3)c(F)cc2n1C[C@@H](O)CO [Compound 1, (R)-1-(2,2-difluorobenzo[d][1,3]dioxol-5-yl)-N-(1-(2,3-dihydroxypropyl)-6-fluoro-2-(1-hydroxy-2-methylpropan-2-yl)-1H-indol-5-yl)cyclopropanecarboxamide]
BinnedMaxEfficacy: +++ (PercentActivity Bins: + <= 25.0 < ++ <= 100.0 < +++)

Source: patent publication US11578062B2, “Solid forms of (R)-1(2,2-difluorobenzo[d][1,3]dioxol-5-yl)-N-(1-(2,3-dihydroxypropyl)-6-fluoro-2-(1-hydroxy-2-methylpropan-2-yl)-1H-indol-5-yl)cyclopropanecarboxamide” (Vertex Pharmaceuticals Incorporated, priority 2010, dated 2023)
